Read-outs that look alike come from different tables or passages of the source.
Experiments:
[1] = Comparative solubility assay in water; format: physicochemical
[2] = tested on: hepatocellular carcinoma cells Hep3B; conditions: reported in background for PCT/CN2017/085135 compound, read-out: inhibitory activity against hepatocellular carcinoma cells Hep3B, IC50; cited from earlier work
[3] = Stability test (25° C., 40° C., light irradiation of 4500 LX, 30 days); format: physicochemical
Protocol: The compound represented by formula (I) of the present disclosure was subjected to HPLC for purity detection under the following conditions. The used chromatographic column was Waters, XBridge C18 4.6×150 mm, 3.5 μm; the mobile phase A consisted of buffer solution: acetonitrile=70:30, the mobile phase B consisted of buffer solution: acetonitrile=[…], the buffer solution was prepared by weighing 9.13 g of dipotassium hydrogen phosphate trihydrate in 2,000 mL of pure water, and adjusting pH using phosphoric acid to 8.0; the detection wavelength was 234 nm; the flow rate was 1.0 mL/min; the column temperature was 25° C.; and the injection volume was 10 μL.

[4] = Pharmacokinetic experiment in ICR mice, single gavage; format: in vivo; conditions: 75 mg·kg −1, single gavage
Protocol: Before and 0.25, 0.5, 1, 2, 4, 8, 10, 12 and 24 hours after administration, 0.15 mL blood was collected from fundus venous plexus and placed into anticoagulant tubes containing EDTA-K2.

[5] = stability at 25° C., day 0, HPLC
[6] = stability at 25° C., day 10, HPLC
[7] = stability at 25° C., day 30, HPLC
[8] = stability at 40° C., day 0, HPLC
[9] = stability at 40° C., day 10, HPLC
[10] = stability at 40° C., day 30, HPLC
[11] = stability under the light irradiation of 4500LX, day 0, HPLC
[12] = stability under the light irradiation of 4500LX, day 10, HPLC
[13] = stability under the light irradiation of 4500LX, day 30, HPLC

| solubility in water at 25° C. [1] | solubility ([1]; 25 °C, thermodynamic from solid) [mg/mL] | purity (%) [3, 5] [%] | purity (%) [3, 6] [%] | purity (%) [3, 7] [%] | purity (%) [3, 8] [%] | purity (%) [3, 9] [%] | purity (%) [3, 10] [%] | purity (%) [3, 11] [%] | purity (%) [3, 12] [%] | purity (%) [3, 13] [%] | Tmax ([4]; ICR, mouse, in vivo, po, 75 mg/kg, read-out: Tmax) [min] | solubility in water at 25° C. ([1]; listed as the crystal form A of the compound represented by formula (I)) [mg/mL] | Tmax [4] [min] | Cmax ([4]; mouse, in vivo, po) [ng/mL] | half-life ([4]; mouse, in vivo, po) [min] | AUC(0-t) ([4]; mouse, in vivo, po, 0-24 h sampling) [ng·h/mL] | SMILES | IC50 [2] [nM] |
| --- | --- | --- | --- | --- | --- | --- | --- | --- | --- | --- | --- | --- | --- | --- | --- | --- | --- | --- |
| insoluble | – | – | – | – | – | – | – | – | – | – | – | – | – | – | – | – | C=CC(=O)Nc1cc(N2CCN(CC)C3(CC3)C2)ccc1Nc1cc(N(C)C(=O)Nc2c(Cl)c(OC)cc(OC)c2Cl)ncn1 [N-(2-((6-(3-(2,6-dichloro-3,5-dimethoxyphenyl)-1-methylureido)pyrimidin-4-yl)amino)-5-(4-ethyl-4,7-diazaspiro[2.5]octane-7-yl)phenyl)acrylamide] | 19 |
| – | 115 | 98.80 | 96.60 | 91.60 | 98.80 | 93.40 | 87.60 | 98.80 | 86.20 | 73.70 | 30 | – | – | – | – | – | C=CC(=O)Nc1cc(N2CCN(CC)C3(CC3)C2)ccc1Nc1cc(N(C)C(=O)Nc2c(Cl)c(OC)cc(OC)c2Cl)ncn1.CCS(=O)(=O)O.CCS(=O)(=O)O [amorphous form, N-(2-((6-(3-(2,6-dichloro-3,5-dimethoxyphenyl)-1-methylureido)pyrimidin-4-yl)amino)-5-(4-ethyl-4,7-diazaspiro[2.5]octan-7-yl)phenyl)acrylamide diethanesulfonate salt] | – |
| – | – | 99.64 | 99.63 | 99.62 | 99.64 | 99.61 | 99.60 | 99.64 | 99.61 | 99.54 | – | 100 | 36.6 | 3980 | 91.2 | 9340 | C=CC(=O)Nc1cc(N2CCN(CC)C3(CC3)C2)ccc1Nc1cc(N(C)C(=O)Nc2c(Cl)c(OC)cc(OC)c2Cl)ncn1.CCS(=O)(=O)O.CCS(=O)(=O)O [crystal form A, N-(2-((6-(3-(2,6-dichloro-3,5-dimethoxyphenyl)-1-methylureido)pyrimidin-4-yl)amino)-5-(4-ethyl-4,7-diazaspiro[2.5]octan-7-yl)phenyl)acrylamide diethanesulfonate salt] | – |
